Test results taken from US6362369B1, “Phthalic acid diamide derivatives fluorine-containing aniline compounds as starting material, agricultural and horticultural insecticides, and a method for application of the insecticides” (Nihon Nohyaku Co., Ltd., priority 1997, dated 2002).

test system: rice leafroller (Cnaphalocrocis medinalis); assay: Insecticidal effect on rice leafroller (Test Example 3); assay type: in vivo; conditions: 500 ppm; rice lamina immersed; third-instar larvae of rice leafroller; four days after inoculation; 25° C., humidity 70%
Description: Insecticidal effect on rice leafroller (Cnaphalocrocis medinalis)
After air-drying, the lamina was placed in a plastic Petri dish with a diameter of 9 cm whose bottom had been covered with a wetted filter paper. The lamina was inoculated with third-instar larvae of rice leafroller, after which the dish was allowed to stand in a room thermostated at 25° C. and having a humidity of 70%. Four days after the inoculation, the dead and alive were counted and the insecticidal effect was judged according to the criterion shown in Test Example 1. The test was carried out with triplicate groups of 10 insects.

Row | Compound | Insecticidal effect, Test Example 3
1 | CC(C)NC(=O)c1ccccc1C(=O)Nc1ccc(C(F)(F)C(F)(F)C(F)(F)C(F)(F)F)cc1 [compound 28] | A (100)
2 | Cc1ccc(NC(=O)c2ccccc2C(=O)NC(C)C)c(C)c1 [compound 44] | A (100)
3 | COC(=O)c1ccc(NC(=O)c2ccccc2C(=O)NC(C)C)c(C)c1 [compound 71] | D (79-50)
4 | CCOP(=O)(OCC)c1ccc(NC(=O)c2ccccc2C(=O)NC(C)C)c(C)c1 [compound 81] | A (100)
5 | CC(C)NC(=O)c1c(I)cccc1C(=O)Nc1ccc(C(F)(F)F)cc1 [compound 349] | A (100)
6 | CC(C)NC(=O)c1c(I)cccc1C(=O)Nc1ccc(OC(F)(F)F)cc1 [compound 352] | A (100)
7 | CC(C)NC(=O)c1cccc(I)c1C(=O)Nc1ccc(C(F)(F)F)cc1 [compound 415] | A (100)
8 | CC(C)NC(=O)c1cccc(I)c1C(=O)Nc1ccc(OC(F)(F)F)cc1 [compound 418] | A (100)

test system: diamondback moth (Plutella xylostella); assay: Insecticidal effect on diamondback moth (Test Example 1); assay type: in vivo; conditions: diamondback moth; judged by the criterion of Test Example 1
Outline: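 Read-out was mortality from hatched-insect counts taken 6 days after the egg-bearing cabbage seedling was immersed, graded by set criteria. Seedlings were air-dried and kept at 25° C after treatment. Groups of 10 insects, in triplicate.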

Row | Compound | Insecticidal effect (Test Example 1), judged from mortality
9 | Cc1cc(C(F)(F)C(F)(F)F)ccc1NC(=O)c1c(Cl)cccc1C(=O)N[C@@H](CO)c1ccccc1 [compound 1443] | A (100)
10 | Cc1cc(C(F)(F)C(F)(F)F)ccc1NC(=O)c1c(Cl)cccc1C(=O)N[C@@H](C)CO [compound 1446] | A (100)
11 | CCCNC(=O)c1cccc(I)c1C(=O)Nc1ccc(OC(F)F)cc1C [compound 1451] | A (100)
12 | Cc1cc(OC(F)F)ccc1NC(=O)c1c(I)cccc1C(=O)NC1CC1 [compound 1453] | A (100)
13 | Cc1cc(C(F)(F)C(F)(F)F)ccc1NC(=O)c1c(Cl)cccc1C(=O)NCc1ccccc1F [compound 1469] | A (100)
14 | Cc1cc(C(F)(F)C(F)(F)F)ccc1NC(=O)c1cccc(Cl)c1C(=O)NCC(O)c1ccccc1 (stereo not drawn) [compound 1476] | A (100)
15 | CCNC(=O)c1cccc(F)c1C(=O)Nc1ccc(C(F)(F)C(F)(F)F)cc1F [compound 1511] | A (100)
16 | CCCNC(=O)c1cccc(F)c1C(=O)Nc1ccc(C(F)(F)C(F)(F)F)cc1F [compound 1513] | A (100)
17 | CC(C)NC(=O)c1cccc(F)c1C(=O)Nc1ccc(C(F)(F)C(F)(F)F)cc1F [compound 1515] | A (100)
18 | Cc1cc(C(F)(F)C(F)(F)F)ccc1NC(=O)c1c(I)cccc1C(=O)N[C@@H](C)CO [compound 1518] | A (100)
19 | Cc1cc(-c2ccc(OC(F)(F)F)cc2)ccc1NC(=O)c1cccc(I)c1C(=O)NC(C)C [compound 1521] | A (100)
20 | Cc1cc(C(F)(F)C(F)(F)F)ccc1NC(=O)c1c(Cl)cccc1C(=O)NCc1ccc(OC(F)(F)F)cc1 [compound 1577] | A (100)
21 | Cc1cc(C(F)(F)C(F)(F)F)ccc1NC(=O)c1cccc(Cl)c1C(=O)N(C)Cc1ccccc1F [compound 1579] | A (100)
22 | Cc1cc(C(F)(F)C(F)(F)F)c(C)cc1NC(=O)c1cccc(I)c1C(=O)NC(C)(C)C [compound 1611] | A (100)
23 | CC(C)NC(=O)c1c(I)cccc1C(=O)Nc1cccc(-c2csc(C(F)(F)F)n2)c1 [compound 1658] | A (100)
24 | Cc1cc2c(cc1NC(=O)c1cccc(Cl)c1C(=O)NC(C)C)OC(F)(F)O2 [compound 1661] | A (100)
25 | CC(C)(C)NC(=O)c1c(I)cccc1C(=O)Nc1ccc2oc(C(F)(F)F)nc2c1Cl [compound 1683] | A (100)
26 | CC(C)c1cc(C(F)(C(F)(F)F)C(F)(F)F)ccc1NC(=O)c1cccc(I)c1C(=O)NC(C)(C)C [compound 1692] | A (100)
27 | CCOc1cc(C(F)(C(F)(F)F)C(F)(F)F)ccc1NC(=O)c1cccc(I)c1C(=O)NC(C)(C)C [compound 1694] | A (100)
28 | Cc1cc(NC(=O)c2cccc(I)c2C(=O)NC(C)C)c(Br)cc1C(F)(C(F)(F)F)C(F)(F)F [compound 1698] | A (100)
29 | CC(C)NC(=O)c1c(I)cccc1C(=O)Nc1ccc(C(F)(C(F)(F)F)C(F)(F)F)cc1-c1ccccc1 [compound 1767] | A (100)
30 | Cc1cc(C(F)(F)C(F)(F)F)ccc1NC(=O)c1c(SC(F)(F)F)ccc(Cl)c1C(=O)NC(C)C [compound 1802] | A (100)
31 | Cc1cc(C(F)(F)C(F)(F)F)ccc1NC(=O)c1cccc([S+]([O-])C(F)(F)F)c1C(=O)NC(C)C (stereo not drawn) [compound 1804] | A (100)
32 | Cc1cc(C(F)(C(F)(F)F)C(F)(F)F)ccc1NC(=O)c1cccc([S+]([O-])C(F)(F)F)c1C(=O)NC(C)C (stereo not drawn) [compound 1805] | A (100)

same assay, conditions: diamondback moth; mortality judged by criterion of Test Example 1

Row | Compound | Insecticidal effect, Test Example 1
33 | Cc1ccccc1CNC(=O)c1cccc(Cl)c1C(=O)Nc1ccc(C(F)(F)C(F)(F)F)cc1C [compound 1338] | A (100)
34 | Cc1ccc(CNC(=O)c2c(Cl)cccc2C(=O)Nc2ccc(C(F)(F)C(F)(F)F)cc2C)cc1 [compound 1341] | A (100)
35 | Cc1ccc(CNC(=O)c2cccc(Cl)c2C(=O)Nc2ccc(C(F)(F)C(F)(F)F)cc2C)cc1 [compound 1342] | A (100)
36 | COc1cccc(CNC(=O)c2c(Cl)cccc2C(=O)Nc2ccc(C(F)(F)C(F)(F)F)cc2C)c1 [compound 1345] | A (100)
37 | COc1cccc(CNC(=O)c2cccc(Cl)c2C(=O)Nc2ccc(C(F)(F)C(F)(F)F)cc2C)c1 [compound 1346] | A (100)
38 | COc1ccc(CNC(=O)c2c(Cl)cccc2C(=O)Nc2ccc(C(F)(F)C(F)(F)F)cc2C)cc1 [compound 1347] | A (100)
39 | COc1ccc(CNC(=O)c2cccc(Cl)c2C(=O)Nc2ccc(C(F)(F)C(F)(F)F)cc2C)cc1 [compound 1348] | A (100)
40 | Cc1cc(C(F)(F)C(F)(F)F)ccc1NC(=O)c1cccc(Cl)c1C(=O)NCc1ccc(Cl)cc1Cl [compound 1349] | A (100)
41 | Cc1cc(C(F)(F)C(F)(F)F)ccc1NC(=O)c1cccc(Cl)c1C(=O)NCCc1ccccc1Cl [compound 1356] | A (100)
42 | Cc1cc(C(F)(F)C(F)(F)F)ccc1NC(=O)c1c(Cl)cccc1C(=O)NC(C)c1ccccc1Cl (stereo not drawn) [compound 1363] | A (100)
43 | Cc1cc(C(F)(F)C(F)(F)F)ccc1NC(=O)c1c(Cl)cccc1C(=O)NC(C)c1cccc(Cl)c1 (stereo not drawn) [compound 1365] | A (100)
44 | Cc1cc(C(F)(F)C(F)(F)F)ccc1NC(=O)c1c(Cl)cccc1C(=O)NC(C)c1ccc(Cl)cc1 (stereo not drawn) [compound 1367] | A (100)
45 | Cc1cc(C(F)(F)C(F)(F)F)ccc1NC(=O)c1cccc(Cl)c1C(=O)NCCOc1ccccc1Cl [compound 1368] | A (100)
46 | Cc1cc(C(F)(F)C(F)(F)F)ccc1NC(=O)c1cccc(Cl)c1C(=O)NCCOc1ccc(Cl)cc1 [compound 1372] | A (100)
47 | Cc1cc(C(F)(F)C(F)(F)F)ccc1NC(=O)c1c(Cl)cccc1C(=O)NCCOc1ccc(Cl)cc1 [compound 1373] | A (100)
48 | Cc1cc(C(F)(F)C(F)(F)F)ccc1NC(=O)c1cccc(Cl)c1C(=O)NCCOc1ccccc1 [compound 1374] | A (100)
49 | Cc1cc(C(F)(F)C(F)(F)F)ccc1NC(=O)c1cccc(Cl)c1C(=O)NCCNc1ccccc1 [compound 1376] | A (100)
50 | Cc1cc(C(F)(F)C(F)(F)F)ccc1NC(=O)c1ccccc1C(=O)NC(CO)c1ccccc1 (stereo not drawn) [compound 1379] | A (100)
51 | Cc1cc(C(F)(F)C(F)(F)F)ccc1NC(=O)c1c(Cl)cccc1C(=O)NCc1ccncc1 [compound 1395] | A (100)
52 | Cc1cc(C(F)(F)C(F)(F)F)ccc1NC(=O)c1ccccc1C(=O)NCC(O)Cc1ccccc1 (stereo not drawn) [compound 1398] | A (100)
53 | Cc1cc(C(F)(F)C(F)(F)F)ccc1NC(=O)c1c(I)cccc1C(=O)NCc1ccccc1 [compound 1401] | A (100)
54 | Cc1cc(C(F)(F)C(F)(F)F)ccc1NC(=O)c1cccc(Cl)c1C(=O)NC(CO)c1ccc(-c2ccccc2)cc1 (stereo not drawn) [compound 1412] | A (100)
55 | Cc1cc(OC(F)F)ccc1NC(=O)c1cccc(Cl)c1C(=O)NCc1ccccc1 [compound 1421] | A (100)
56 | Cc1cc(OC(F)F)ccc1NC(=O)c1cccc(Cl)c1C(=O)NCc1ccccc1Cl [compound 1423] | A (100)
57 | Cc1cc(OC(F)F)ccc1NC(=O)c1c(I)cccc1C(=O)NCc1ccccc1 [compound 1431] | A (100)
58 | Cc1ccccc1CNC(=O)c1c(I)cccc1C(=O)Nc1ccc(OC(F)F)cc1C [compound 1434] | A (100)
59 | Cc1cc(OC(F)F)ccc1NC(=O)c1cccc(I)c1C(=O)N(C)Cc1ccccc1 [compound 1440] | A (100)
60 | Cc1cc(C(F)(F)C(F)(F)F)ccc1NC(=O)c1cccc(Cl)c1C(=O)N[C@@H](CO)c1ccccc1 [compound 1442] | A (100)
